Reference: patent US8568745B2, “Water-soluble drug carrier and process for producing the same” (Kyushu University, National University Corporation, priority 2009, dated 2013)

experiment: Dispersibility of FITC-DEX-encapsulated S/W with additives; assay type: physicochemical; conditions: additive 125 mg/mL in aqueous phase of S/O/W emulsion
Procedure: In order to reduce the particle size in S/W, the additives presented in Table 1 were added to the aqueous phase of the S/O/W emulsion during the preparation of S/W, and the dispersibility of each sample was observed.
(2) Cyclohexane (3.0 mL) was added to (1) to obtain an FITC-DEX-encapsulated S/O.
(3) A PC-ER-290-FITC-DEX complex solid was obtained by freeze drying the S/O/W emulsion prepared by agitating the solution of (2) (0.50 mL), and 5.0 mL of an aqueous solution (containing 2.5 mg/mL PC, and each additive at a concentration of 125 mg/mL) in a 12-mL vial container using a homogenizer.
(4) A 0.1 TE buffer (5.0 mL) was added to (3) to obtain an FITC-DEX-encapsulated S/W.

Dispersibility / particle size of FITC-DEX-encapsulated S/W with additive, relatively small particle sizes:
OC[C@@H](O)[C@@H](O)[C@H](O)[C@@H](O)CO [sorbitol], OCC(O)CO [Glycerine], OC[C@H]1O[C@H](O[C@H]2O[C@H](CO)[C@@H](O)[C@H](O)[C@H]2O)[C@H](O)[C@@H](O)[C@@H]1O [trehalose]
